According to PubChem BioAssay (NCI):
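Cultured in 96-well plates, cells were exposed to test compound for 48 hours across five concentrations. GI50 marks 50% less growth. The concentration for full growth arrest is given as TGI.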

Legend:
Assay in all cases: growth of human tumour cells (NCI), 48 h
MCF7 breast = tested on: MCF7 breast
MDA-MB-468 breast = tested on: MDA-MB-468 breast
UACC-62 melanoma = tested on: UACC-62 melanoma
SK-MEL-5 melanoma = tested on: SK-MEL-5 melanoma
KM12 colon = tested on: KM12 colon
NCI-H23 lung = tested on: NCI-H23 lung
NCI-H460 lung = tested on: NCI-H460 lung
SNB-19 CNS = tested on: SNB-19 CNS
HCT-15 colon = tested on: HCT-15 colon
HCT-116 colon = tested on: HCT-116 colon
SF-268 CNS = tested on: SF-268 CNS
MDA-MB-231 breast = tested on: MDA-MB-231 breast
NCI-H226 lung = tested on: NCI-H226 lung
PC-3 prostate = tested on: PC-3 prostate
OVCAR-5 ovarian = tested on: OVCAR-5 ovarian
SK-MEL-28 melanoma = tested on: SK-MEL-28 melanoma
LOX IMVI melanoma = tested on: LOX IMVI melanoma
CCRF-CEM leukemia = tested on: CCRF-CEM leukemia
SF-539 CNS = tested on: SF-539 CNS
786-0 renal = tested on: 786-0 renal
HS 578T breast = tested on: HS 578T breast
SNB-75 CNS = tested on: SNB-75 CNS
SK-MEL-2 melanoma = tested on: SK-MEL-2 melanoma
A498 renal = tested on: A498 renal
TK-10 renal = tested on: TK-10 renal
K-562 leukemia = tested on: K-562 leukemia
UO-31 renal = tested on: UO-31 renal
UACC-257 melanoma = tested on: UACC-257 melanoma
HOP-62 NSCLC = tested on: HOP-62 NSCLC
M14 melanoma = tested on: M14 melanoma
RPMI-8226 leukemia = tested on: RPMI-8226 leukemia
SR leukemia = tested on: SR leukemia
MOLT-4 leukemia = tested on: MOLT-4 leukemia
HCC-2998 colon = tested on: HCC-2998 colon
SN12C renal = tested on: SN12C renal
HL-60(TB) leukemia = tested on: HL-60(TB) leukemia
NCI-H522 lung = tested on: NCI-H522 lung
EKVX NSCLC = tested on: EKVX NSCLC
HOP-92 NSCLC = tested on: HOP-92 NSCLC
A549 NSCLC = tested on: A549 NSCLC
SF-295 CNS = tested on: SF-295 CNS
MALME-3M melanoma = tested on: MALME-3M melanoma
ACHN renal = tested on: ACHN renal
RXF 393 renal = tested on: RXF 393 renal
CAKI-1 renal = tested on: CAKI-1 renal
COLO 205 colon = tested on: COLO 205 colon
SW-620 colon = tested on: SW-620 colon
DU-145 prostate = tested on: DU-145 prostate
SK-OV-3 ovarian = tested on: SK-OV-3 ovarian
U251 CNS = tested on: U251 CNS
MDA-MB-435 = tested on: MDA-MB-435
HT29 colon = tested on: HT29 colon
IGROV1 ovarian = tested on: IGROV1 ovarian
OVCAR-8 ovarian = tested on: OVCAR-8 ovarian
T-47D breast = tested on: T-47D breast
OVCAR-3 ovarian = tested on: OVCAR-3 ovarian
OVCAR-4 ovarian = tested on: OVCAR-4 ovarian
BT-549 breast = tested on: BT-549 breast

`COc1ccccc1[C@H]1C(C(=O)c2ccc(Cl)cc2)C2(N[C@@H]1c1ccccc1)C(=O)Nc1ccccc12` (stereo partly specified) gave a GI50 (MCF7 breast) of 1.67 µM, a TGI (MCF7 breast) of 8.88 µM and a GI50 (MDA-MB-468 breast) of 1.24 µM. For the same compound, the TGI (MDA-MB-468 breast) was 3.85 µM, the GI50 (UACC-62 melanoma) was 1.86 µM and the TGI (UACC-62 melanoma) was 8.04 µM. It also gave a GI50 (SK-MEL-5 melanoma) of 1.87 µM, a TGI (SK-MEL-5 melanoma) of 6.52 µM and a GI50 (KM12 colon) of 2.45 µM. The TGI (KM12 colon) was 14.6 µM, the GI50 (NCI-H23 lung) was 1.83 µM and the TGI (NCI-H23 lung) was 8.71 µM. For the same compound, the GI50 (NCI-H460 lung) was 1.21 µM, the TGI (NCI-H460 lung) was 2.89 µM and the GI50 (SNB-19 CNS) was 3.34 µM. The TGI (SNB-19 CNS) was 61.5 µM, the GI50 (HCT-15 colon) was 1.9 µM and the TGI (HCT-15 colon) was 11.5 µM. It also gave a GI50 (HCT-116 colon) of 1.5 µM, a TGI (HCT-116 colon) of 4.66 µM and a GI50 (SF-268 CNS) of 2.19 µM. It also gave a TGI (SF-268 CNS) of 29.8 µM, a GI50 (MDA-MB-231 breast) of 1.6 µM and a TGI (MDA-MB-231 breast) of 5.79 µM. The GI50 (NCI-H226 lung) was 1.61 µM, the TGI (NCI-H226 lung) was 9.08 µM and the GI50 (PC-3 prostate) was 1.85 µM. For the same compound, the TGI (PC-3 prostate) was 13.6 µM, the GI50 (OVCAR-5 ovarian) was 3.24 µM and the TGI (OVCAR-5 ovarian) was 19.5 µM. The GI50 (SK-MEL-28 melanoma) was 4.16 µM, the TGI (SK-MEL-28 melanoma) was 13.2 µM and the GI50 (LOX IMVI melanoma) was 1.55 µM. For the same compound, the TGI (LOX IMVI melanoma) was 6.15 µM, the GI50 (CCRF-CEM leukemia) was 1.91 µM and the TGI (CCRF-CEM leukemia) was 8.25 µM. It also gave a GI50 (SF-539 CNS) of 2.83 µM, a TGI (SF-539 CNS) of 10.5 µM and a GI50 (786-0 renal) of 2.13 µM. It also gave a TGI (786-0 renal) of 10.1 µM, a GI50 (HS 578T breast) of 1.67 µM and a TGI (HS 578T breast) of 10.4 µM. For the same compound, the GI50 (SNB-75 CNS) was 1.13 µM, the TGI (SNB-75 CNS) was 13.2 µM and the GI50 (SK-MEL-2 melanoma) was 1.73 µM. The TGI (SK-MEL-2 melanoma) was 6.06 µM, the GI50 (A498 renal) was 4.75 µM and the TGI (A498 renal) was 18 µM. The GI50 (TK-10 renal) was 3.68 µM, the TGI (TK-10 renal) was 33.2 µM and the GI50 (K-562 leukemia) was 1.78 µM. For the same compound, the TGI (K-562 leukemia) was 44.4 µM, the GI50 (UO-31 renal) was 1.11 µM and the TGI (UO-31 renal) was 12.5 µM. The GI50 (UACC-257 melanoma) was 2.63 µM, the TGI (UACC-257 melanoma) was 14 µM and the GI50 (HOP-62 NSCLC) was 3.86 µM. The TGI (HOP-62 NSCLC) was 14 µM, the GI50 (M14 melanoma) was 1.81 µM and the TGI (M14 melanoma) was 7.63 µM. The GI50 (RPMI-8226 leukemia) was 2.06 µM, the TGI (RPMI-8226 leukemia) was 21.9 µM and the GI50 (SR leukemia) was 1.42 µM. The TGI (SR leukemia) was 4.26 µM, the GI50 (MOLT-4 leukemia) was 1.75 µM and the TGI (MOLT-4 leukemia) was 16.1 µM. It also gave a GI50 (HCC-2998 colon) of 2.1 µM, a TGI (HCC-2998 colon) of 7.72 µM and a GI50 (SN12C renal) of 1.24 µM. The TGI (SN12C renal) was 2.9 µM, the GI50 (HL-60(TB) leukemia) was 1.42 µM and the TGI (HL-60(TB) leukemia) was 5.48 µM. For the same compound, the GI50 (NCI-H522 lung) was 1.24 µM, the TGI (NCI-H522 lung) was 4.17 µM and the GI50 (EKVX NSCLC) was 2.13 µM. It also gave a TGI (EKVX NSCLC) of 61.5 µM, a GI50 (HOP-92 NSCLC) of 1.79 µM and a TGI (HOP-92 NSCLC) of 5.88 µM. It also gave a GI50 (A549 NSCLC) of 1.99 µM, a TGI (A549 NSCLC) of 12 µM and a GI50 (SF-295 CNS) of 2.39 µM. The TGI (SF-295 CNS) was 12.6 µM, the GI50 (MALME-3M melanoma) was 3.36 µM and the TGI (MALME-3M melanoma) was 12.1 µM. The GI50 (ACHN renal) was 1.99 µM, the TGI (ACHN renal) was 22.5 µM and the GI50 (RXF 393 renal) was 1.32 µM. It also gave a TGI (RXF 393 renal) of 3.51 µM, a GI50 (CAKI-1 renal) of 1.23 µM and a TGI (CAKI-1 renal) of 51.5 µM. The GI50 (COLO 205 colon) was 2.25 µM, the TGI (COLO 205 colon) was 9.75 µM and the GI50 (SW-620 colon) was 1.86 µM. For the same compound, the TGI (SW-620 colon) was 24.4 µM, the GI50 (DU-145 prostate) was 2.45 µM and the TGI (DU-145 prostate) was 24.9 µM. For the same compound, the GI50 (SK-OV-3 ovarian) was 4.24 µM, the TGI (SK-OV-3 ovarian) was 55.3 µM and the GI50 (U251 CNS) was 1.81 µM. For the same compound, the TGI (U251 CNS) was 7.38 µM, the GI50 (MDA-MB-435) was 1.48 µM and the TGI (MDA-MB-435) was 3.73 µM. For the same compound, the GI50 (HT29 colon) was 1.49 µM, the TGI (HT29 colon) was 4.1 µM and the GI50 (IGROV1 ovarian) was 1.95 µM. For the same compound, the TGI (IGROV1 ovarian) was 11.6 µM, the GI50 (OVCAR-8 ovarian) was 1.94 µM and the TGI (OVCAR-8 ovarian) was 8.55 µM. It also gave a GI50 (T-47D breast) of 1.97 µM, a TGI (T-47D breast) of 44.1 µM and a GI50 (OVCAR-3 ovarian) of 2.19 µM. The TGI (OVCAR-3 ovarian) was 12.1 µM, the GI50 (OVCAR-4 ovarian) was 2.36 µM and the TGI (OVCAR-4 ovarian) was 31.8 µM. For the same compound, the GI50 (BT-549 breast) was 1.97 µM and the TGI (BT-549 breast) was 6.57 µM.
